The source of these data is US20220395458A1, “PREVENTION OF VISIBLE PARTICLE FORMATION IN AQUEOUS PROTEIN SOLUTIONS” (Hoffmann-La Roche Inc., priority 2019, published 2022).

Molecules are shown by their SMILES.

Series [1] is described as follows: Visible particles in E/P box (Ph. Eur. 2.9.20) after spiking FFA to inorganic salt solutions. Type of series: physicochemical. The note with it: FFA below solubility limit; for Visible particles E/P d0: d0 directly after spiking. The method, then:
Aqueous stock solutions were prepared in 0.02% PS20 (Croda. Edison, N.J., USA) at defined concentrations of (1) 5 mg/mL and (2) 12.5 mg/mL (lauric acid. Sigma-Aldrich/Merck. Darmstadt. Del.) or (1) 1.5 mg/mL and (2) 5 mg/mL (myristic acid, Sigma-Aldrich/Merck. Darmstadt. Del.) as previously described by Doshi et al.^6 The procedure was adapted that the FFA/PS20 stock solution was sterile filtered using 0.22 μm PVDF Steriflip filters (Merck Millipore. Darmstadt. Del.) before 1:10 dilution and subsequently homogenized without a magnetic stirrer using a Heidolph Rotamax 120 orbital shaker (Schwabach. Del.) at 100 rpm at 25° C., for 1 hour. After 1:500 dilution, the solution was homogenized for 1 hour at 25° C., before homogenization at 2-8° C., overnight, 12-40 μL of stock solution were used for spiking experiments yielding final FFA concentrations of (1) 10 μg/mL and (2) 25 μg/mL (lauric acid) or (1) 3 μg/mL and (2) 10 μg/mL (myristic acid). Dilutions with stock solutions 1 yield FFA concentration below their solubility limit, whereas stock solutions 2 act as positive control confirmed by the formation of visible particles. FFA concentrations were verified for selected by LC-MS samples acc. Honemann et al.^7
Aqueous stock solutions of different salts were prepared at 1 mg/mL and used for spiking experiments to final concentrations between […]. NaCl, NaAlO2. NaBO2. B2O3, and CaCl2 (Sigma-Aldrich/Merck. Darmstadt. Del.) were selected as their dissolution products (ions) represent typical glass leachables from Type I borosilicate glass. The pH of the NaAlO2 and NaBO2 stock solutions was adjusted to pH 6 using HCl and subsequently filtered using 0.22 μm PVDF Sterivex filters (Merck Millipore. Darmstadt. Del.) and true elemental concentrations were determined by inductively-coupled plasma mass spectrometry (ICP-MS). Elemental concentrations were 0,048 μg/mL Aluminium and 295 μg/mL sodium and 78 μg/mL boron and 168 μg/mL, respectively. Spiking experiments with FFA were performed in duplicates.
Samples were analyzed by visual inspection on a Seidenader V 90-T instrument (Seidenader Maschinenbau GmbH. Markt Schwaben. Del.) as previously described by Ditter et al.^9 and using a black/white panel according Ph. Eur. 2.9.20.^10 and classified as Many particles (>7). Few particles (4-7), or Practically free of particles (0-4) in E/P box, and Many particles (>10). Few particles (6-10). Essentially free of particles (1-5), or Free of particles (0) by Seidenader.
(§1) pH of all solutions was verified. Samples were visually inspected immediately after spiking and regularly for up to 7 days. Further characterization by HIAC, turbidity, FTIR, and SEM-EDX was performed on day 1 only. All samples were analyzed when equilibrated to room temperature (4 h).
Different inorganic salt solutions, i.e. CaCl2. NaAlO2. NaBO2. B2O3, and NaCl, were prepared simulating artificial glass leachables. Myristic and lauric acid, as main degradation product from hydrolytic PS20 degradation, were added at concentrations below their solubility limit and samples were analyzed for visible particles. SVP, and turbidity. Samples were compared against relevant controls and the pH verified at pH 6.

The nature of series [2]: Particle identification by FTIR. Format: physicochemical. The following applies: particle identification d1. The method, then:
Particles >20 μm were further identified by Fourier transformed infrared spectroscopy (FTTIR) using a Nicolet™ iNTM10 Infrared Microscope (Thermo Fisher Scientific) by comparison to reference spectra. Samples were filtrated under laminar air flow through gold-coated polycarbonate filters (pore size 0.8 μm, diameter 13 mm, Sterlitech). Filter conditioning included few droplets of ethanol followed by 1 mL of particle-free water. After filtration of the samples, ˜1 mL of cooled particle-free water was used as a final washing step before analysis.
as §1
Glass leachables were generated from different types of glass vials, e.g. Exp33 and Exp51 vials, with different matrix solutions including WFI, a glycine solution adjusted to pH 6, and a placebo solution representative for a mAb formulation. Defined amounts of myristic and lauric acid below their solubility limit were added to the solutions/mixtures of glass leachables and analyzed. Visible particles in Seidenader are summarized in Table 3 and were detected for all samples in contrast to various controls. Particle formation was dependent on the glass leachable solution and dependent on incubation time. […] An example for the dependency of particle formation on incubation time is provided in Table 3 for myristic acid in glass leachable solution from Exp51 vials/glycine solution. The example highlights the kinetics of particle formation with no particles directly after spiking and more than 10 particles at incubation day 5 and 7. For selected samples, particles were further characterized and identified by FTIR confirming the presence of free fatty acids. FFA were not confirmed by FTIR for glass leachable solutions generated with WFI, which is linked to the time point of FTIR analysis at d1 and the late onset of particle formation for these samples. Placebo samples were not analyzed further by FTIR as the positive control was found negative attributed to the presence of additional 0.02% PS20, potentially solubilizing the FFA seeds. Characterization of the particles by SEM-EDX confirmed the presence of glass leachables, like Aluminium or silicon on the surface of the FFA particles. […] The spiking study highlights that mixtures of ‘real’ glass leachables lead to precipitation of FFA and particle formation in the visible range dependent on mixture and amount of glass leachables as well as dependent on incubation time, […]

[3] abbreviates: CaCl2 250 μg/mL (Ca2+ 90 μg/mL).
Setting [4] is: CaCl2 500 μg/mL (Ca2+ 180 μg/mL).
Where [5] appears, read: CaCl2 1000 μg/mL (Ca2+ 360 μg/mL).
[6] abbreviates: NaAlO2 nominal 250 μg/mL (0.012 μg/mL ion).
Setting [7] is: NaAlO2 nominal 500 μg/mL (0.024 μg/mL ion).
[8] abbreviates: NaAlO2 nominal 1000 μg/mL (0.048 μg/mL ion).

Turning to `CCCCCCCCCCCC(=O)O` [Lauric acid, lauric acid], the “Visible particles E/P d0” value is listed as “/ (Practically free of particles (0-4, /) in E/P box)” in series [1] (setting [3]); “/ (Practically free of particles (0-4, /) in E/P box)” in series [1] (setting [4]); “/ (Practically free of particles (0-4, /) in E/P box)” in series [1] (setting [5]); “/ (Practically free of particles (0-4, /) in E/P box)” in series [1] (setting [6]); “/ (Practically free of particles (0-4, /) in E/P box)” in series [1] (setting [7]); “/ (Practically free of particles (0-4, /) in E/P box)” in series [1] (setting [8]). For the same compound, the “Visible particles E/P d2” value in series [1] (setting [3]) is “/ (Practically free of particles (0-4, /) in E/P box)”; in series [1] (setting [4]) it was “/ (Practically free of particles (0-4, /) in E/P box)”; in series [1] (setting [5]), “xx (Few particles (4-7, xx))”; in series [1] (setting [6]) it was “/ (Practically free of particles (0-4, /) in E/P box)”; in series [1] (setting [7]) it was “/ (Practically free of particles (0-4, /) in E/P box)”; in series [1] (setting [8]) it was “/ (Practically free of particles (0-4, /) in E/P box)”. Also, the “Visible particles E/P d7” value in series [1] (setting [3]) is “/ (Practically free of particles (0-4, /) in E/P box)”; in series [1] (setting [4]), “/ (Practically free of particles (0-4, /) in E/P box)”; in series [1] (setting [5]) it was “/ (Practically free of particles (0-4, /) in E/P box)”; in series [1] (setting [6]), “/ (Practically free of particles (0-4, /) in E/P box)”; in series [1] (setting [7]), “/ (Practically free of particles (0-4, /) in E/P box)”; in series [1] (setting [8]), “/ (Practically free of particles (0-4, /) in E/P box)”. Further, the “Visible particles E/P d1” value is on record as “/ (Practically free of particles (0-4, /) in E/P box)” in series [1] (setting [6]); “/ (Practically free of particles (0-4, /) in E/P box)” in series [1] (setting [7]); “/ (Practically free of particles (0-4, /) in E/P box)” in series [1] (setting [8]). Also, the FTIR result in series [2] (Exp33 vials, 3xTS WFI) was “FFA”; in series [2] (Exp51 vials, 3xTS Glycine pH 6), “FFA”.

With `CCCCCCCCCCCCCC(=O)O` [Myristic acid, myristic acid], the “Visible particles E/P d0” value in series [1] (setting [3]) is “/ (Practically free of particles (0-4, /) in E/P box)”; in series [1] (setting [4]), “/ (Practically free of particles (0-4, /) in E/P box)”; in series [1] (setting [5]), “/ (Practically free of particles (0-4, /) in E/P box)”; in series [1] (setting [6]) it was “/ (Practically free of particles (0-4, /) in E/P box)”; in series [1] (setting [7]), “/ (Practically free of particles (0-4, /) in E/P box)”; in series [1] (setting [8]) it was “/ (Practically free of particles (0-4, /) in E/P box)”. Further, the “Visible particles E/P d1” value in series [1] (setting [3]) is given as “/ (Practically free of particles (0-4, /) in E/P box)”; in series [1] (setting [4]), “xx (Few particles (4-7, xx))”; in series [1] (setting [5]) it was “xxx (Many particles (>7, xxx))”; in series [1] (setting [6]), “/ (Practically free of particles (0-4, /) in E/P box)”; in series [1] (setting [7]) it was “/ (Practically free of particles (0-4, /) in E/P box)”; in series [1] (setting [8]), “/ (Practically free of particles (0-4, /) in E/P box)”. Moreover, the “Visible particles E/P d2” value is recorded as “/ (Practically free of particles (0-4, /) in E/P box)” in series [1] (setting [3]); “xxx (Many particles (>7, xxx))” in series [1] (setting [5]); “/ (Practically free of particles (0-4, /) in E/P box)” in series [1] (setting [6]); “/ (Practically free of particles (0-4, /) in E/P box)” in series [1] (setting [7]). The “Visible particles E/P d7” value in series [1] (setting [3]) is listed as “xxx (Many particles (>7, xxx))”; in series [1] (setting [4]), “xxx (Many particles (>7, xxx))”; in series [1] (setting [5]) it was “xxx (Many particles (>7, xxx))”; in series [1] (setting [6]), “/ (Practically free of particles (0-4, /) in E/P box)”; in series [1] (setting [8]), “xxx (Many particles (>7, xxx))”. For the same compound, the FTIR entry in series [2] (Exp33 vials, 3xTS Glycine pH 6) was “FFA”; in series [2] (Exp51 vials, 3xTS Glycine pH 6), “FFA”.
